Test results as given in US20260248833A1, “PYRIMIDINE NUCLEOSIDE TREATMENTS” (The Children`s Medical Center Corporation, priority 2022, published 2026).
“Also recorded” adds a separate entry of the source.

Legend:
[1] = test system: telomerase; assay: TRAP assay on lysates from 293T cells treated with dT; assay type: cell-based, human; details: 293T cells treated with or without 100 μM dT, 3 days
Description: TRAP assay: cell extracts for TRAP assays were made using TRAPeze™1×CHAPS Lysis Buffer (Roche) supplemented with RNASEin (Promega). Standard TRAP reactions (in FIG. 25a) were performed as described, with cell input normalized across samples using the Bio-Rad DC assay. TRAP assays were modified to enable unique dNTP concentrations in telomerase reactions from PCR reactions (FIG. 25) as follows: reactions were assembled with 1×TRAP buffer (20 mM Tris-HCl, pH 8.3; 1.5 mM MgCl2; 63 mM KCl; 0.05% Tween 20; 1 mM EGTA), TS, ACX, TNST, and NT primers as described (see Primers/Oligos below), dNTPs were added at physiologic concentrations (dATP 24 μM, dGTP 5.2 μM, dCTP 29 μM, dTTP 37 μM) unless otherwise mentioned in the figure legend, followed by telomerase extracts. TRAP assays were modified to detect GGAAAG repeats using the following primers: TS GGAAAG, TNST GGAAAG, ACX GGAAAG, and NT (see Primers/Oligos below). After addition of telomerase extracts, reactions were incubated for 30 minutes at 30° C. followed by heat inactivation at 95° C. for 5 minutes. […] Images were quantified for a given lane using ImageJ by measuring the signal of the telomerase repeat sized products divided by the signal of the internal control band for the lane, normalized to the same ratio for the untreated sample(s) in a given experiment. […]

[2] = test system: 293T cells; assay: Terminal restriction fragment (TRF) Southern blot telomere length, 293T cells; assay type: cell-based, human
Description: (§1) Cell culture: K562 cells (ATCC) were grown in RPMI1 1640 (Gibco) media supplemented with 10% fetal bovine serum. 293T cells (ATCC) were grown in DMEM (Gibco) supplemented with 10% fetal bovine serum, and were subcultured using 0.05% trypsin (Gibco). iPSCs were derived, characterized and cultured as previously described. iPSCs were grown in Essential 8 Media (Life Technologies) supplemented with the ROCK inhibitor Y271632 (Stem Cell Technologies) at 10 μM on plates coated with hES qualitied Matrigel matrix (Corning) and were subcultured using Accutase (Stem Cell Technologies).
(§2) Terminal Restriction Fragment Length Analysis: genomic DNA was isolated from cells using the Invitrogen Purelink Genomic DNA mini kit (Invitrogen). 1-3 μg of gDNA was digested with RsaI and HinfI for 2-3 hrs at 37° C. and loaded onto a 0.6% agarose gel followed by Southern blotting using the Telotaggg Telomere Length Assay Kit (Roche). Quantification was performed using the WALTER webtool.

[3] = test system: TERC-null 293T cells; assay: TRF Southern blot telomere length, telomerase-negative TERC-null 293T cells; assay type: cell-based, human; details: 100 μM thymidine for 7 days
Description: as §1, §2

[4] = test system: cell cycle progression; details: cited from earlier work
[5] = test system: K562 cells; assay: Cell cycle analysis by DAPI staining and flow cytometry, K562 cells; assay type: cell-based, human
Description: Cell cycle analysis by DNA content staining and flow cytometry: Cells were prepared either for flow-FISH staining as described (for experiments in FIG. 5) or by ethanol fixation (for data in FIG. 6, 27), followed by rehydration and counterstaining using DAPI (BD Biosciences) and analysis on an LSR-II or Fortessa analyzer (BD Biosciences) using BD FACSDiva 8.0.2. Cells were gated on FSC/SSC as described in FIG. 6d using FlowJo V10.7.1.

[6] = test system: pCHK1-S345 and pRPA32-S33; assay: Immunoblot of replication stress signaling in iPSCs; assay type: cell-based, human; details: iPSCs treated with dT
[7] = test system: primary fibroblasts; assay: Telomere lengthening from dT with TERT expression in primary fibroblasts; assay type: cell-based; details: primary fibroblasts (FIG. 30A)
[8] = test system: 293T cells; assay: Polar metabolite profiling by LC-MS of dT treated 293T cells; assay type: cell-based, human
Description: Liquid Chromatography-Mass Spectrometry: extraction of and quantification of polar metabolites was performed as described using HPLC grade methanol (Fisher Scientific). If a given species was detected in multiple ion modes, the mode with the highest average signal in the untreated cells was used for analysis.

[9] = test system: human HSPCs; assay: TRF telomere length of HSPCs; assay type: cell-based; details: HSPCs treated with dT for 7 days (FIG. 19)
Description: as §2

[10] = test system: pCHK1-S345 and pRPA32-S33; assay: Immunoblot of replication stress signaling in super-telomerase cells; assay type: cell-based, human

In the case of `Cc1cn([C@H]2C[C@H](O)[C@@H](CO)O2)c(=O)[nH]c1=O` [dT, 1-[(2R,4S,5R)-4-Hydroxy-5-(hydroxymethyl)oxolan-2-yl]-5-methylpyrimidine-2,4 (1H,3H)-dione], the “telomerase activity in lysates (abundance of active telomerase enzymes)” value [1] was “no difference in telomerase activity”, the “doses leading to robust telomere elongation in less than 10 days” value [2] was no less than 50 µM and the “telomere lengthening from dT treatment” value ([2]; 50 μM dT for eight days, without SAMHD1 knockdown) was ~ 470 bp. For the same compound, the “telomere elongation after withdrawal of dT” value ([2]; 100 μM dT withdrawn after 15 days) was “aborted telomere elongation”, the “telomere length, time-course of dT treatment” value ([2]; 100 μM dT, over 33 days) was “gradually and continually increased telomere length” and the telomere length ([2]; 100 μM of the indicated deoxynucleoside(s) for 9 days) was “rapidly and robustly increases telomere length; also recorded: promoted telomere lengthening, as did dT alone; also recorded: necessary and sufficient for telomere lengthening”. For the same compound, the telomere length ([2]; 20 or 40 μM dT, 10 days) was “minimal telomere length changes”, the telomere length ([2]; 20 or 40 μM dT, 34 days) was “robust telomere lengthening” and the “persistence of long telomere length after dT withdrawal” value ([2]; 100 micromolar thymidine for 15 days then removed) was “more than two weeks”. For the same compound, the “telomere lengthening following dT with dNTPase-deficient SAMHD1 H215A or K312A variants” value ([2]; 10 days) was “could not restrict telomere lengthening following dT supplementation”, the “telomere lengthening following dT treatment with overexpression of wild-type SAMHD1” value ([2]; 10 days, compared to EGFP control) was “reduced telomere lengthening following dT treatment” and the “telomere elongation with dT from different manufacturers” value ([2]; 10 days, three manufacturers, each of >98% purity) was “resulted in telomere elongation similarly”. For the same compound, the “telomere lengthening upon dT treatment in TK1-edited cells” value ([2]; CRISPR/Cas9 TK1 edited) was “complete abrogation of the telomere lengthening; also recorded: prevented telomere lengthening following dT treatment”, the “telomere lengthening upon dT treatment in TK2-edited cells” value ([2]; CRISPR/Cas9 TK2 edited) was “no difference in telomere length increases compared to control AAVS1-targeted cells; also recorded: TK2 knockout did not” and the “telomere lengthening, combined SAMHD1 knockdown and dT treatment” value ([2]; SAMHD1 targeting shRNA, 50 μM dT for eight days) was ~ 800 bp. For the same compound, the “telomere elongation, increase of base pairs (bp) per day” value ([2]; at 100 μM dT) was 96 bp per day, the “telomere elongation, increase of base pairs (bp) per day” value ([2]; at […] dT) was 60 bp per day and the “telomere lengthening in TYMS-knockout cells” value ([2]; baseline 16 μM dT, plus 100 μM additional dT or 1 mM dU, 10 days) was “responsive to dT to promote telomere lengthening”. The telomere length [3] was “failed to drive detectable telomere elongation”, the “doses typically used to synchronize cells in S phase” value [4] was 1 to 2 mM and the “dT doses with no detectable changes in cell cycle distribution” value [5] was “below 12.5 μM”. For the same compound, the replication stress signaling [6] was “no indication of replication stress signaling”, the “telomere lengthening from dT with expression of TERT” value [7] was “expression of TERT can increase telomere lengthening from dT” and the dTDP levels ([8]; 100 μM dT) was “fourfold”. For the same compound, the “levels of dTTP compared to vehicle” value ([8]; 100 μM dT) was “four-fold”, the “levels of dTMP, dTDP and dTTP” value ([8]; 100 μM dT for 24 hours) was “increases levels of dTMP, dTDP and dTTP” and the telomere length [9] was “lengthens telomeres in human HSPCs after just 7 days”. The “replication stress signaling at the telomere-active dose” value ([10]; 40 μM dT) was “far below doses that induce replication stress signaling” and the replication stress signaling ([10]; highest doses, 30 hours) was “induced similar levels of replication stress signaling”.
